Data as given in patent publication US11591355B2 (Peloton Therapeutics, Inc., priority 2017, dated 2023).

How the values were obtained:
Human CD73 = biological target: T1, Human CD73 (Homo sapiens, UniProt P21589); assay: CD73 Enzyme Assay; format: biochemical; conditions: 0.25 nM hCD73, 25 μM AMP, kinetic read at 360 nm; read-out: CD73 Enzyme Assay IC50
T1 construct: purchased R&D Systems; host or cells: CHO cells
T1 sequence (P21589 27-549): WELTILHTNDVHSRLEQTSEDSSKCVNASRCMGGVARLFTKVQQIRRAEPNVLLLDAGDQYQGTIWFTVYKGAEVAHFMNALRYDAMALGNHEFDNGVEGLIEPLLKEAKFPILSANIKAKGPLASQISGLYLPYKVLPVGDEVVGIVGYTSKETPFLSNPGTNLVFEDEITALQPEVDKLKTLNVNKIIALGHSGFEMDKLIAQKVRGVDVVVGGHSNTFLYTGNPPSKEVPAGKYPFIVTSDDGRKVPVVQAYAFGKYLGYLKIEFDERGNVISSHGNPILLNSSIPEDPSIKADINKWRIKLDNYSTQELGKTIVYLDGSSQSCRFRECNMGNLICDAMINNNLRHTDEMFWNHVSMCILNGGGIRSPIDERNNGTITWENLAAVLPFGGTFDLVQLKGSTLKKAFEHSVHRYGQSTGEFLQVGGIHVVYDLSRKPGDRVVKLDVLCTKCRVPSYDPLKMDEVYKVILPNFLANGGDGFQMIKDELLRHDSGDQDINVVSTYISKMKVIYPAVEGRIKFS

[1] = biological target: T2, CD73 on U138 human neuroglioma cells (Homo sapiens, UniProt P21589); assay: CD73 Cell-Based Assay; conditions: U138 cells, AMP substrate, 2 hours at 37° C., inorganic phosphate by malachite green
T2 construct: U138 cells were obtained from ATCC and cultured in DMEM with 10% FBS; host or cells: U138 human neuroglioma cells
T2 sequence (P21589 27-549): T1 sequence (P21589 27-549)
How it was run: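 Whole U138 cells washed free of phosphate were incubated with 200 μM AMP (mixture concentration before equal-volume addition) plus compound in HEPES-buffered saline, pH 7.4, for 2 h at 37 °C, 5% CO2. Adenosine-forming activity read as inorganic phosphate released into supernatant by malachite green.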

Row | SMILES | IC50 (Human CD73) | IC50 [1]
1 | CCNc1nc(Cl)nc2c1ccn2[C@@H]1O[C@H](COCP(=O)(O)O)[C@@H](O)[C@H]1O [Compound 98, [(2R,3S,4R,5R)-5-[2-chloro-4-(ethylamino)-pyrrolo[2,3-d]-pyrimidin-7-yl]-3,4-dihydroxy-tetrahydro-furan-2-yl]methoxy-methylphosphonic acid] | 10 to 100 nM | 10 to 100 nM
2 | O=P(O)(O)COC[C@H]1O[C@@H](n2ccc3c(NC4CCOCC4)nc(Cl)nc32)[C@H](O)[C@@H]1O [Compound 99, [(2R,3S,4R,5R)-5-[2-chloro-4-(tetrahydro-pyran-4-ylamino)-pyrrolo[2,3-d]-pyrimidin-7-yl]-3,4-dihydroxy-tetrahydro-furan-2-yl]methoxy-methylphosphonic acid] | 10 to 100 nM | 10 to 100 nM
3 | O=P(O)(O)COC[C@H]1O[C@@H](n2ccc3c(N4CCOCC4)nc(Cl)nc32)[C@H](O)[C@@H]1O [Compound 100, [(2R,3S,4R,5R)-5-(2-chloro-4-morpholino-pyrrolo[2,3-d]-pyrimidin-7-yl)-3,4-dihydroxy-tetrahydro-furan-2-yl]methoxy-methylphosphonic acid] | 10 to 100 nM | 10 to 100 nM
4 | O=P(O)(O)COC[C@H]1O[C@@H](n2ccc3c(NC4CCC(F)(F)C4)nc(Cl)nc32)[C@H](O)[C@@H]1O (stereo partly drawn) [Compound 101, [(2R,3S,4R,5R)-5-[2-chloro-4-[(3,3-difluoro-cyclopentyl)amino]-pyrrolo[2,3-d]-pyrimidin-7-yl]-3,4-dihydroxy-tetrahydro-furan-2-yl]methoxy-methylphosphonic acid] | < 10 nM | < 10 nM
5 | O=P(O)(O)COC[C@H]1O[C@@H](n2ccc3c(NC4CC5CC5C4)nc(Cl)nc32)[C@H](O)[C@@H]1O (stereo partly drawn) [Compound 102, [(2R,3S,4R,5R)-5-[4-(3-bicyclo[3.1.0]-hexanylamino)-2-chloro-pyrrolo[2,3-d]-pyrimidin-7-yl]-3,4-dihydroxy-tetrahydro-furan-2-yl]methoxy-methylphosphonic acid] | < 10 nM | < 10 nM
6 | O=P(O)(O)COC[C@H]1O[C@@H](n2ccc3c(N4CC5CCCC5C4)nc(Cl)nc32)[C@H](O)[C@@H]1O (stereo partly drawn) [Compound 103, [(2R,3S,4R,5R)-5-[4-(3,3a,4,5,6,6a-hexa-hydro-1H-cyclopenta-[c]pyrrol-2-yl)-2-chloro-pyrrolo[2,3-d]-pyrimidin-7-yl]-3,4-dihydroxy-tetrahydro-furan-2-yl]methoxy-methylphosphonic acid] | < 10 nM | < 10 nM
7 | C[C@H](c1ccccc1)N(C)c1nc(Cl)nc2c1ncn2[C@@H]1O[C@H](COCP(=O)(O)O)[C@@H](O)[C@H]1O [Compound 104] | 10 to 100 nM | < 10 nM
8 | O=P(O)(O)COC[C@H]1O[C@@H](n2ccc3c(N4CC5CC5C4)nc(Cl)nc32)[C@H](O)[C@@H]1O (stereo partly drawn) [Compound 105, [(2R,3S,4R,5R)-5-[4-(3-azabicyclo[3.1.0]-hexan-3-yl)-2-chloro-pyrrolo[2,3-d]-pyrimidin-7-yl]-3,4-dihydroxy-tetrahydro-furan-2-yl]methoxy-methylphosphonic acid] | < 10 nM | < 10 nM
9 | C[C@H](Nc1nc(Cl)nc2c1ccn2[C@@H]1O[C@H](COCP(=O)(O)O)[C@@H](O)[C@H]1O)c1ccc(C(F)(F)F)cc1 [Compound 106, [(2R,3S,4R,5R)-5-[2-chloro-4-[[(1S)-1-[4-(trifluoromethyl)-phenyl]ethyl]amino]-pyrrolo[2,3-d]-pyrimidin-7-yl]-3,4-dihydroxy-tetrahydro-furan-2-yl]methoxy-methylphosphonic acid] | < 10 nM | < 10 nM
10 | CN(C)c1nc(C#N)nc2c1ccn2[C@@H]1O[C@H](COCP(=O)(O)O)[C@@H](O)[C@H]1O [Compound 107, [(2R,3S,4R,5R)-5-[2-cyano-4-(dimethyl-amino)pyrrolo[2,3-d]-pyrimidin-7-yl]-3,4-dihydroxy-tetrahydro-furan-2-yl]methoxy-methylphosphonic acid] | 10 to 100 nM | 10 to 100 nM
11 | CCNc1nc(C#N)nc2c1ccn2[C@@H]1O[C@H](COCP(=O)(O)O)[C@@H](O)[C@H]1O [Compound 108, [(2R,3S,4R,5R)-5-[2-cyano-4-(ethylamino)-pyrrolo[2,3-d]-pyrimidin-7-yl]-3,4-dihydroxy-tetrahydro-furan-2-yl]methoxy-methylphosphonic acid] | 10 to 100 nM | 10 to 100 nM
12 | O=P(O)(O)COC[C@H]1O[C@@H](n2ccc3c(NC4CCC4)nc(Cl)nc32)[C@H](O)[C@@H]1O [Compound 109, [(2R,3S,4R,5R)-5-[2-chloro-4-(cyclobutyl-amino)pyrrolo[2,3-d]-pyrimidin-7-yl]-3,4-dihydroxy-tetrahydro-furan-2-yl]methoxy-methylphosphonic acid] | < 10 nM | < 10 nM
13 | N#Cc1nc(NC2CCC2)c2ccn([C@@H]3O[C@H](COCP(=O)(O)O)[C@@H](O)[C@H]3O)c2n1 [Compound 110, [(2R,3S,4R,5R)-5-[2-cyano-4-(cyclobutyl-amino)pyrrolo[2,3-d]-pyrimidin-7-yl]-3,4-dihydroxy-tetrahydro-furan-2-yl]methoxy-methylphosphonic acid] | < 10 nM | < 10 nM
14 | O=P(O)(O)COC[C@H]1O[C@@H](n2ccc3c(NC4CCCCC4)nc(Cl)nc32)[C@H](O)[C@@H]1O [Compound 111, [(2R,3S,4R,5R)-5-[2-chloro-4-(cyclohexyl-amino)pyrrolo[2,3-d]-pyrimidin-7-yl]-3,4-dihydroxy-tetrahydro-furan-2-yl]methoxy-methylphosphonic acid] | < 10 nM | < 10 nM

More lines, now with the values ahead:

Row | IC50 (Human CD73) | IC50 [1] | SMILES
15 | 10 to 100 nM | 10 to 100 nM | O=P(O)(O)COC[C@H]1O[C@@H](n2ccc3c(N4CCC4)nc(Cl)nc32)[C@H](O)[C@@H]1O [Compound 112, [(2R,3S,4R,5R)-5-[4-(azetidin-1-yl)-2-chloro-pyrrolo[2,3-d]-pyrimidin-7-yl]-3,4-dihydroxy-tetrahydro-furan-2-yl]methoxy-methylphosphonic acid]
16 | 10 to 100 nM | 10 to 100 nM | C[C@H](c1ccccc1)N(C)c1nc(C#N)nc2c1ncn2[C@@H]1O[C@H](COCP(=O)(O)O)[C@@H](O)[C@H]1O [Compound 113]
17 | 10 to 100 nM | < 10 nM | C[C@@H](Nc1nc(Cl)nc2c1ccn2[C@@H]1O[C@H](COCP(=O)(O)O)[C@@H](O)[C@H]1O)c1ccc(C(F)(F)F)cc1 [Compound 114, [(2R,3S,4R,5R)-5-[2-chloro-4-[[(1R)-1-[4-(trifluoromethyl)-phenyl]ethyl]amino]-pyrrolo[2,3-d]-pyrimidin-7-yl]-3,4-dihydroxy-tetrahydro-furan-2-yl]methoxy-methylphosphonic acid]
18 | < 10 nM | 10 to 100 nM | C[C@@H](Nc1nc(C#N)nc2c1ccn2[C@@H]1O[C@H](COCP(=O)(O)O)[C@@H](O)[C@H]1O)c1ccc(C(F)(F)F)cc1 [Compound 115, [(2R,3S,4R,5R)-5-[2-cyano-4-[[(1R)-1-[4-(trifluoromethyl)-phenyl]ethyl]amino]-pyrrolo[2,3-d]-pyrimidin-7-yl]-3,4-dihydroxy-tetrahydro-furan-2-yl]methoxy-methylphosphonic acid]
19 | < 10 nM | < 10 nM | C[C@H](Nc1nc(Cl)nc2c1ccn2[C@@H]1O[C@H](COCP(=O)(O)O)[C@@H](O)[C@H]1O)c1ccc(F)cc1F [Compound 116, [(2R,3S,4R,5R)-5-[2-chloro-4-[[(1S)-1-(2,4-difluorophenyl)-ethyl]amino]pyrrolo-[2,3-d]pyrimidin-7-yl]-3,4-dihydroxy-tetrahydrofuran-2-yl]methoxymethyl-phosphonic acid]
20 | 10 to 100 nM | < 10 nM | C[C@H](Nc1nc(Cl)nc2c1ccn2[C@@H]1O[C@H](COCP(=O)(O)O)[C@@H](O)[C@H]1O)c1ccc(C#N)cc1 [Compound 117, [(2R,3S,4R,5R)-5-[2-chloro-4-[[(1S)-1-(4-cyanophenyl)ethyl]-amino]pyrrolo[2,3-d]-pyrimidin-7-yl]-3,4-dihydroxy-tetrahydro-furan-2-yl]methoxy-methylphosphonic acid]
21 | < 10 nM | < 10 nM | N#Cc1nc(NC2CCCCC2)c2ccn([C@@H]3O[C@H](COCP(=O)(O)O)[C@@H](O)[C@H]3O)c2n1 [Compound 119, [(2R,3S,4R,5R)-5-[2-cyano-4-(cyclohexyl-amino)pyrrolo[2,3-d]-pyrimidin-7-yl]-3,4-dihydroxy-tetrahydro-furan-2-yl]methoxy-methylphosphonic acid]
22 | 100 to 1000 nM | 10 to 100 nM | N#Cc1nc(NC2CCOCC2)c2ccn([C@@H]3O[C@H](COCP(=O)(O)O)[C@@H](O)[C@H]3O)c2n1 [Compound 120, [(2R,3S,4R,5R)-5-[2-cyano-4-(tetrahydro-pyran-4-ylamino)-pyrrolo[2,3-d]-pyrimidin-7-yl]-3,4-dihydroxy-tetrahydro-furan-2-yl]methoxy-methylphosphonic acid]
